Consider 34 molecules from patent US20200031778A1, “NOVEL 5-SUBSTITUTED IMIDAZOLYLMETHYL DERIVATIVES” (Bayer CropScience Aktiengesellschaft, priority 2016, published 2020).

A short description of this data set: Log P by HPLC on reversed phase columns (EEC directive 79/831 Annex V.A8; methods [a], [b], [c]). The format is physicochemical. Here is the method:
Measurement of Log P values was performed according to EEC directive 79/831 Annex V.A8 by HPLC (High Performance Liquid Chromatography) on reversed phase columns with the following methods: • ^[a] Log P value is determined by measurement of LC-UV, in an acidic range, with 0.1% formic acid in water and acetonitrile as eluent (linear gradient from 10% acetonitrile to 95% acetonitrile). • ^[b] Log P value is determined by measurement of LC-UV, in a neutral range, with 0.001 molar ammonium acetate solution in water and acetonitrile as eluent (linear gradient from 10% acetonitrile to 95% acetonitrile). • ^[c] Log P value is determined by measurement of LC-UV, in an acidic range, with 0.1% phosphoric acid and acetonitrile as eluent (linear gradient from 10% acetonitrile to 95% acetonitrile).
If more than one Log P value is available within the same method, all the values are given and separated by “+”.
Calibration was done with straight-chain alkan2-ones (with 3 to 16 carbon atoms) with known Log P values (measurement of Log P values using retention times with linear interpolation between successive alkanones). Lambda-max-values were determined using UV-spectra from 200 nm to 400 nm and the peak values of the chromatographic signals.

Consider `Cn1ccc2cc(C(O)(Cn3cncc3C#N)CC(C)(C)C)ccc21` (stereo not shown) [I-377], for which the LogP was 2.94^[a].
For the molecule `N#Cc1cncn1CC(O)(c1c(F)cc(Cl)cc1F)C1(F)CC1` (stereo not shown) [I-519], the LogP is 2.36^[a].
On the same count and under the same terms, the figure for `CC(=O)c1cncn1CC(C)(O)c1cnc(Oc2ccc(C(F)(F)F)cc2)cc1Br` (stereo not shown) [I-252] is 2.84^[a]; for `OC(Cn1cncc1F)c1cnc(Oc2ccc(OC(F)(F)F)cc2)cc1C(F)(F)F` (stereo not shown) [I-121] it is 2.42^[a].
For `N#Cc1cncn1CC(O)(CC1CC1)c1cc(F)cc(Cl)c1` (stereo not shown) [I-497], the LogP was 2.54^[a].
Still for that read-out and setting: the figure for `N#Cc1cncn1CC(O)(CC1CC1)c1c(F)cccc1F` (stereo not shown) [I-513] is 2.18^[a]; for `N#Cc1cncn1CC(O)(C=CCC(Cl)CCl)C1(F)CC1` (stereo not shown) [I-680] it is 2.44^[a].
Take `CC(O)(Cn1cncc1Br)c1ccc(Oc2ccc(Cl)cc2)cc1` (stereo not shown) [I-165]: the LogP is 2.30^[a].
As for `N#Cc1cncn1CC(O)c1ccc(Oc2ccc(Br)cc2)cc1Br` (stereo not shown) [I-47], the LogP was 3.33^[a].
Consider `C[Si](C)(CCC(O)(Cn1cncc1C#N)C1(F)CC1)c1ccccc1` (stereo not shown) [I-668], for which the LogP is 3.30^[a].
The same measure, in the same setting: the figure for `N#Cc1cncn1CC(O)c1ccc(Oc2ccc(C(F)(F)F)cc2)cc1C(F)(F)F` (stereo not shown) [I-53] is 3.52^[a]; for `COC(=O)COC(Cn1cncc1C#N)c1ccc(Oc2ccc(Br)cc2)cc1C(F)(F)F` (stereo not shown) [I-94] it is 3.99^[a].
On the same count and under the same terms, the figure for `CC(C)(C)C(O)(Cn1cncc1C#N)c1ccc(Cl)cc1F` (stereo not shown) [I-342] is 3.00^[a]; for `CCCC(C)C(O)(Cn1cncc1C#N)c1ccc(Cl)cc1Cl` (single isomer, unassigned) [I-315] it is 3.63^[a].
Regarding `N#Cc1cncn1CC(O)(c1ccc(Cl)c(Cl)c1F)C1(Cl)CC1` (stereo not shown) [I-630], the LogP was 2.76^[a].
Turning to `CC(O)(Cn1cncc1C#N)c1ccc(Oc2ccc(C(F)(F)F)cc2)nc1C(F)(F)F` (stereo not shown) [I-312], the LogP was 3.25^[a].
Still for that read-out and setting: the figure for `COc1c(Cl)ccc(C(O)(Cn2cncc2C#N)C2(F)CC2)c1F` (stereo not shown) [I-527] is 2.36^[a].
Turning to `CC(C)(C)C(O)(Cn1cncc1C#N)c1ccc(Cl)cc1` (stereo not shown) [I-284], the LogP is 2.74^[a].
For the molecule `CC(O)(Cn1cncc1C#N)c1ccc(Oc2ccc(Cl)cc2)cc1Br` (stereo not shown) [I-216], the LogP was 3.50^[a].
Still for that read-out and setting: the figure for `CC(O)(Cn1cncc1Br)c1ccc(Oc2ccc(I)cc2)cc1Br` (stereo not shown) [I-186] is 3.23^[a]; for `CC(C)(C)CC(O)(Cn1cncc1C#N)c1ccc(Cl)cc1F` (stereo not shown) [I-260] it is 3.44^[a].
As to `CCCC#Cc1ccc(C(O)(Cn2cncc2C#N)C2(Cl)CC2)c(Cl)c1` (stereo not shown) [I-655], the LogP was 3.65^[a].
A word on the chromatographic logP: it is a lipophilicity value derived from retention on a column. Read a high chromatographic logP as higher lipophilicity. `O=C(Cn1cncc1Br)c1ccc(Oc2ccc(I)cc2)cc1F` [IX-48] gave a chromatographic logP (reversed phase HPLC column, method [a]: LC-UV, acidic range, 0.1% formic acid in water and acetonitrile as eluent (linear gradient from 10% to 95% acetonitrile)) of 3.19.
As to `CCCC(O)(Cn1cncc1C#N)c1ccc(F)cc1Br` (stereo not shown) [I-408], the LogP was 2.75^[a].
Same read-out and setting: the figure for `N#Cc1cncn1CC(O)(CCC1CCCC1)C1(Cl)CC1` (stereo not shown) [I-596] is 3.37^[a].
Still for that read-out and setting: the figure for `Cc1ccc(C(O)(Cn2cncc2C#N)C2(Cl)CC2)cc1C1(C(F)(F)F)CC1` (stereo not shown) [I-212] is 3.27^[a]; for `CC(O)(Cn1cncc1C#N)c1cnc(Oc2ccc(Br)nc2)cc1C(F)(F)F` (stereo not shown) [I-362] it is 2.58^[a].
Regarding `N#Cc1cncn1CC(O)(c1ccc(Cl)cc1Cl)C1(F)CC1` (stereo not shown) [I-237], the LogP was 2.51^[a].
`CC(O)(Cn1cncc1Cl)c1ccc(Oc2ccc(Br)cn2)cc1Cl` (stereo not shown) [I-204]: the LogP is 2.32^[a].
In the case of `CC(C)(C)CC(O)(Cn1cncc1C#N)c1ccc(C(F)(F)F)cc1` (stereo not shown) [I-272], the LogP was 3.35^[a].
In the case of `OC(Cn1cncc1Cl)c1ccc(Oc2ccc(I)cc2)cc1F` (stereo not shown) [I-31], the LogP is 2.51^[a].
The same measure, in the same setting: the figure for `N#Cc1cncn1CC(O)(c1ccc(Cl)c(F)c1F)C1(F)CC1` (stereo not shown) [I-637] is 2.41^[a]; for `CC(O)(Cn1cncc1Cl)c1ccc(Oc2ccc(I)cc2)cc1Cl` (stereo not shown) [I-166] it is 3.04^[a].
On the same count and under the same terms, the figure for `CC(C)(C)c1ccc(C(O)(Cn2cncc2C#N)C2(Cl)CC2)cc1` (stereo not shown) [I-247] is 3.29^[a].
